The assay deals with MV-4-11 cells. Briefly: Gene expression microarray analysis (Affymetrix PrimeView) and GSEA. As to conditions: ProbeSet 11762504_a_at; LIST D. Format: cell-based, human. The arrangement: RFU PODN (11730768_x_at) / Fold change /veh PODN (11730768_x_at) / RFU LINC00158 (11744669_a_at) / Fold change /veh LINC00158 (11744669_a_at) / RFU DUSP10 (11751237_a_at) / Fold change /veh DUSP10 (11751237_a_at) / RFU ID3 (11757404_x_at) / Fold change /veh ID3 (11757404_x_at) / RFU PLEKHG5 (11737974_s_at) / Fold change /veh PLEKHG5 (11737974_s_at) / RFU LRRC4B (11730491_at) / Fold change /veh LRRC4B (11730491_at) / RFU GIMAP4 (11747438_a_at) / Fold change /veh GIMAP4 (11747438_a_at) / RFU KRT8 (11758183_x_at) / Fold change /veh KRT8 (11758183_x_at) / RFU CNN1 (11734310_a_at) / Fold change /veh CNN1 (11734310_a_at) / RFU VPS37D (11726825_at) / Fold change /veh VPS37D (11726825_at) / RFU C10orf10 (11716522_x_at) / Fold change /veh C10orf10 (11716522_x_at) / RFU KIR2DL2 /// KIR2DL4 /// KIR2DL5A /// KIR2DL5B /// KIR2DS1 /// KIR2DS2 /// KIR2DS3 /// KIR2DS4 /// KIR3DL3 /// KIR3DL3 /// KIR3DS1 (11738374_at) / Fold change /veh KIR2DL2 /// KIR2DL4 /// KIR2DL5A /// KIR2DL5B /// KIR2DS1 /// KIR2DS2 /// KIR2DS3 /// KIR2DS4 /// KIR3DL3 /// KIR3DL3 /// KIR3DS1 (11738374_at) / RFU C1QL1 (11718748_at) / Fold change /veh C1QL1 (11718748_at) / RFU TMPRSS4 (11747572_a_at) / Fold change /veh TMPRSS4 (11747572_a_at) / RFU HAMP (11756126_x_at) / Fold change /veh HAMP (11756126_x_at) / RFU RNFT2 (11725882_a_at) / Fold change /veh RNFT2 (11725882_a_at) / RFU NR4A2 (11747474_a_at) / Fold change /veh NR4A2 (11747474_a_at) / RFU ABCC12 (11746883_a_at) / Fold change /veh ABCC12 (11746883_a_at) / RFU TMEM136 (11760407_x_at) / Fold change /veh TMEM136 (11760407_x_at) / RFU CLDN22 /// WWC2 (11732394_at) / Fold change /veh CLDN22 /// WWC2 (11732394_at) / RFU HLA-DPB1 (11760878_x_at) / Fold change /veh HLA-DPB1 (11760878_x_at) / RFU SPINT1 (11716480_a_at) / Fold change /veh SPINT1 (11716480_a_at) / RFU GAP43 (11754022_s_at) / Fold change /veh GAP43 (11754022_s_at) / RFU A4GNT (11735810_at) / Fold change /veh A4GNT (11735810_at) / RFU PRB3 (11715151_x_at) / Fold change /veh PRB3 (11715151_x_at) / RFU TUBB4B (11761932_at) / Fold change /veh TUBB4B (11761932_at) / RFU CAPN14 (11732068_a_at) / Fold change /veh CAPN14 (11732068_a_at) / RFU TMCC2 (11721928_a_at) / Fold change /veh TMCC2 (11721928_a_at) / RFU IRGQ (11745062_a_at) / Fold change /veh IRGQ (11745062_a_at) / RFU FAM174B (11720279_a_at) / Fold change /veh FAM174B (11720279_a_at) / RFU TMPRSS4 (11748680_a_at) / Fold change /veh TMPRSS4 (11748680_a_at) / RFU FAM212B (11763350_a_at) / Fold change /veh FAM212B (11763350_a_at) / RFU PLEKHG5 (11743358_a_at) / Fold change /veh PLEKHG5 (11743358_a_at) / RFU ZSCAN30 (11745921_a_at) / Fold change /veh ZSCAN30 (11745921_a_at) / RFU CMKLR1 (11741424_a_at) / Fold change /veh CMKLR1 (11741424_a_at) / RFU LOC101060620 /// MAPK8IP1 (11723275_at) / Fold change /veh LOC101060620 /// MAPK8IP1 (11723275_at) / RFU SPTSSB (11747773_x_at) / Fold change /veh SPTSSB (11747773_x_at) / RFU PRSS12 (11739890_at) / Fold change /veh PRSS12 (11739890_at) / RFU BIN1 (11741810_x_at) / Fold change /veh BIN1 (11741810_x_at) / RFU WNT11 (11732464_a_at) / Fold change /veh WNT11 (11732464_a_at) / RFU C10orf10 (11716521_a_at) / Fold change /veh C10orf10 (11716521_a_at) / RFU C5orf56 (11738089_at) / Fold change /veh C5orf56 (11738089_at) / RFU CYB561 (11721691_x_at) / Fold change /veh CYB561 (11721691_x_at) / RFU ANKRD19P (11752326_a_at) / Fold change /veh ANKRD19P (11752326_a_at) / RFU OR2T12 /// OR2T33 /// OR2T8 (11738714_s_at) / Fold change /veh OR2T12 /// OR2T33 /// OR2T8 (11738714_s_at) / RFU VCAN (11748164_a_at) / Fold change /veh VCAN (11748164_a_at) / RFU JSRP1 (11732532_at) / Fold change /veh JSRP1 (11732532_at) / RFU KRTAP10-11 (11738290_x_at) / Fold change /veh KRTAP10-11 (11738290_x_at) / RFU MYO3A (11730013_a_at) / Fold change /veh MYO3A (11730013_a_at) / RFU EBF3 (11725865_a_at) / Fold change /veh EBF3 (11725865_a_at) / RFU CAMK2N1 (11719241_x_at) / Fold change /veh CAMK2N1 (11719241_x_at) / RFU C5orf56 (11738088_a_at) / Fold change /veh C5orf56 (11738088_a_at) / RFU OLFML3 (11715873_a_at) / Fold change /veh OLFML3 (11715873_a_at) / RFU LOC100653217 /// NTM (11731650_a_at) / Fold change /veh LOC100653217 /// NTM (11731650_a_at) / RFU MAPK11 (11762145_a_at) / Fold change /veh MAPK11 (11762145_a_at) / RFU FIZ1 (11724087_x_at) / Fold change /veh FIZ1 (11724087_x_at) / RFU OASL (11726364_x_at) / Fold change /veh OASL (11726364_x_at) / RFU SOX15 (11748057_x_at) / Fold change /veh SOX15 (11748057_x_at) / RFU CD79A (11719716_a_at) / Fold change /veh CD79A (11719716_a_at) / RFU HIST1H1D (11736915_at) / Fold change /veh HIST1H1D (11736915_at) / RFU CASKIN2 (11723855_a_at) / Fold change /veh CASKIN2 (11723855_a_at) / RFU LOC730098 (11760151_x_at) / Fold change /veh LOC730098 (11760151_x_at) / RFU OR4N2 (11742367_at) / Fold change /veh OR4N2 (11742367_at) / RFU PRRT2 (11749266_a_at) / Fold change /veh PRRT2 (11749266_a_at) / RFU SNX32 (11753110_a_at) / Fold change /veh SNX32 (11753110_a_at) / RFU CDHR5 (11726645_a_at) / Fold change /veh CDHR5 (11726645_a_at) / RFU RCAN1 (11760418_a_at) / Fold change /veh RCAN1 (11760418_a_at) / RFU FAM167A (11723789_a_at) / Fold change /veh FAM167A (11723789_a_at) / RFU FAM26E (11764081_at) / Fold change /veh FAM26E (11764081_at) / RFU ISYNA1 (11749810_s_at) / Fold change /veh ISYNA1 (11749810_s_at) / RFU ACY1 (11761880_at) / Fold change /veh ACY1 (11761880_at) / RFU 11764098_at / Fold change /veh 11764098_at / RFU SAMD14 (11745864_x_at) / Fold change /veh SAMD14 (11745864_x_at) / RFU NPB (11741838_a_at) / Fold change /veh NPB (11741838_a_at) / RFU TMPRSS6 (11731388_a_at) / Fold change /veh TMPRSS6 (11731388_a_at) / RFU KRTAP10-2 (11738614_at) / Fold change /veh KRTAP10-2 (11738614_at) / RFU ARHGAP8 /// PRR5-ARHGAP8 (11727945_x_at) / Fold change /veh ARHGAP8 /// PRR5-ARHGAP8 (11727945_x_at) / RFU KRTAP5-7 /// NADSYN1 (11734609_at) / Fold change /veh KRTAP5-7 /// NADSYN1 (11734609_at) / RFU RASL12 (11751679_a_at) / Fold change /veh RASL12 (11751679_a_at) / RFU CDKN2B (11736163_a_at) / Fold change /veh CDKN2B (11736163_a_at) / RFU PRF1 (11729649_at) / Fold change /veh PRF1 (11729649_at) / RFU, ZNF638 /// ZNF638-IT1 / Fold change vs veh, ZNF638 /// ZNF638-IT1 / RFU, PANK3 / Fold change vs veh, PANK3 / RFU, SH3YL1 / Fold change vs veh, SH3YL1 / RFU, ZEB2 / Fold change vs veh, ZEB2 / RFU, NRIP1 / Fold change vs veh, NRIP1 / RFU, PTTG1IP / Fold change vs veh, PTTG1IP / RFU, CAPN2 / Fold change vs veh, CAPN2 / RFU, MED14 / Fold change vs veh, MED14 / RFU, SNORA58 / Fold change vs veh, SNORA58 / RFU, C1orf63 / Fold change vs veh, C1orf63 / RFU, LRRFIP1 / Fold change vs veh, LRRFIP1 / RFU, NDUFAF7 / Fold change vs veh, NDUFAF7 / RFU, SLC12A2 / Fold change vs veh, SLC12A2 / RFU, IBTK / Fold change vs veh, IBTK / RFU, ESF1 / Fold change vs veh, ESF1 / Fold change vs veh, TMEM50B / RFU, TAOK1 / Fold change vs veh, TAOK1 / RFU, ACBD3 / Fold change vs veh, ACBD3 / RFU, TMA16 / Fold change vs veh, TMA16 / RFU, RWDD3 / Fold change vs veh, RWDD3 / RFU, BCAT1 / Fold change vs veh, BCAT1 / RFU, EDEM3 / Fold change vs veh, EDEM3 / RFU, TMEM33 / Fold change vs veh, TMEM33 / RFU, WDR75 / Fold change vs veh, WDR75 / RFU, AHCTF1 / Fold change vs veh, AHCTF1 / RFU, TFRC / Fold change vs veh, TFRC / RFU, ZDHHC17 / Fold change vs veh, ZDHHC17 / RFU, NOM1 / Fold change vs veh, NOM1 / RFU, ARL8B / Fold change vs veh, ARL8B / RFU, ZBTB11 / Fold change vs veh, ZBTB11 / RFU, TAMM41 / Fold change vs veh, TAMM41 / RFU, KIAA1704 /// LOC100996395 / Fold change vs veh, KIAA1704 /// LOC100996395 / RFU, ING1 / Fold change vs veh, ING1 / RFU, TRMT61B / Fold change vs veh, TRMT61B / RFU, FUBP3 / Fold change vs veh, FUBP3 / RFU, TP53 / Fold change vs veh, TP53 / RFU, TNKS2 / Fold change vs veh, TNKS2 / RFU, ZFP14 / Fold change vs veh, ZFP14 / RFU, ACTR2 / Fold change vs veh, ACTR2 / RFU, PPP3R1 / Fold change vs veh, PPP3R1 / RFU, PIK3R1 / Fold change vs veh, PIK3R1 / RFU, HNRNPA1 / Fold change vs veh, HNRNPA1 / RFU, RNF170 / Fold change vs veh, RNF170 / RFU, ZNF28 / Fold change vs veh, ZNF28 / RFU, RNGTT / Fold change vs veh, RNGTT / RFU, OGT / Fold change vs veh, OGT / RFU, BRD1 / Fold change vs veh, BRD1 / RFU, MARS / Fold change vs veh, MARS / RFU, ZNF655 / Fold change vs veh, ZNF655 / RFU, FAHD1 / Fold change vs veh, FAHD1 / RFU, BDP1 / Fold change vs veh, BDP1 / RFU, LRRCC1 / Fold change vs veh, LRRCC1 / RFU, ARID1A / Fold change vs veh, ARID1A / RFU, ZNF146 / Fold change vs veh, ZNF146 / RFU, ZNF330 / Fold change vs veh, ZNF330 / RFU, GPN3 / Fold change vs veh, GPN3 / RFU, C9orf123 / Fold change vs veh, C9orf123 / RFU, N4BP2L2 / Fold change vs veh, N4BP2L2 / RFU, ARFIP1 / Fold change vs veh, ARFIP1 / RFU, FAM179B / Fold change vs veh, FAM179B / RFU, BCL10 / Fold change vs veh, BCL10 / RFU, UHRF1BP1L / Fold change vs veh, UHRF1BP1L / RFU, BET1 / Fold change vs veh, BET1 / RFU, CNOT2 / Fold change vs veh, CNOT2 / RFU, ZNF268 / Fold change vs veh, ZNF268 / Fold change vs veh, ZNF507 / RFU, DGCR2 / Fold change vs veh, DGCR2 / RFU, WDSUB1 / Fold change vs veh, WDSUB1 / Fold change vs veh, HSP90B1 /// MIR3652 / RFU, ADSS / Fold change vs veh, ADSS / RFU, GK / Fold change vs veh, GK / RFU, ZNF148 / Fold change vs veh, ZNF148 / RFU, TAF9 / Fold change vs veh, TAF9 / RFU, SLC1A5 / Fold change vs veh, SLC1A5 / RFU, SLMO2 / Fold change vs veh, SLMO2 / RFU, ABCC4 / Fold change vs veh, ABCC4 / RFU, LOC101060439 /// RAP1B / Fold change vs veh, LOC101060439 /// RAP1B / RFU, RFX7 / Fold change vs veh, RFX7 / RFU, GTPBP10 / Fold change vs veh, GTPBP10 / RFU, CNEP1R1 / Fold change vs veh, CNEP1R1 / RFU, BIVM-ERCC5 /// ERCC5 / Fold change vs veh, BIVM-ERCC5 /// ERCC5 / RFU, ILF3 / Fold change vs veh, ILF3 / RFU 11762660_at / Fold change /veh 11762660_at / RFU VCAN (11757783_s_at) / Fold change /veh VCAN (11757783_s_at) / RFU DDX43 (11728927_at) / Fold change /veh DDX43 (11728927_at) / RFU KRT8 (11758188_x_at) / Fold change /veh KRT8 (11758188_x_at) / RFU NKD1 (11759106_at) / Fold change /veh NKD1 (11759106_at) / RFU SRD5A1 (11742802_a_at) / Fold change /veh SRD5A1 (11742802_a_at) / RFU TPSAB1 /// TPSB2 (11721975_s_at) / Fold change /veh TPSAB1 /// TPSB2 (11721975_s_at) / RFU GSTM3 (11746129_a_at) / Fold change /veh GSTM3 (11746129_a_at) / RFU IL23R (11737362_x_at) / Fold change /veh IL23R (11737362_x_at) / RFU TMEM51 (11727254_a_at) / Fold change /veh TMEM51 (11727254_a_at) / RFU PIWIL2 (11732686_x_at) / Fold change /veh PIWIL2 (11732686_x_at) / RFU ORM1 (11744905_x_at) / Fold change /veh ORM1 (11744905_x_at) / RFU CCDC152 (11743942_at) / Fold change /veh CCDC152 (11743942_at) / RFU ECM1 (11717891_a_at) / Fold change /veh ECM1 (11717891_a_at) / RFU IL23R (11748794_a_at) / Fold change /veh IL23R (11748794_a_at) / RFU TNFAIP8L3 (11732012_x_at) / Fold change /veh TNFAIP8L3 (11732012_x_at) / RFU MBOAT4 (11741988_at) / Fold change /veh MBOAT4 (11741988_at) / RFU 11764193_at / Fold change /veh 11764193_at / RFU TMEM53 (11763286_at) / Fold change /veh TMEM53 (11763286_at) / RFU MAGEB2 (11727129_at) / Fold change /veh MAGEB2 (11727129_at) / RFU TMEM200A (11744735_a_at) / Fold change /veh TMEM200A (11744735_a_at) / RFU CCDC152 (11751479_a_at) / Fold change /veh CCDC152 (11751479_a_at) / RFU FAM211A (11726209_a_at) / Fold change /veh FAM211A (11726209_a_at) / RFU RGS16 (11746705_a_at) / Fold change /veh RGS16 (11746705_a_at) / RFU VCAN (11755009_s_at) / Fold change /veh VCAN (11755009_s_at) / RFU RHOB (11743442_s_at) / Fold change /veh RHOB (11743442_s_at) / RFU RGS16 (11720943_a_at) / Fold change /veh RGS16 (11720943_a_at) / RFU RGS16 (11720944_at) / Fold change /veh RGS16 (11720944_at) / RFU, VPS4B / Fold change vs veh, VPS4B / RFU, CREB1 / Fold change vs veh, CREB1 / RFU, DNAJC13 / Fold change vs veh, DNAJC13 / RFU, GNAQ / Fold change vs veh, GNAQ / RFU, CDK5R1 / Fold change vs veh, CDK5R1 / RFU, ZRANB3 / Fold change vs veh, ZRANB3 / RFU, CUL4A / Fold change vs veh, CUL4A / RFU, CCNY / Fold change vs veh, CCNY / RFU, UFL1 / Fold change vs veh, UFL1 / RFU, COG3 / Fold change vs veh, COG3 / RFU, DIAPH2 / Fold change vs veh, DIAPH2 / RFU, SKA2 / Fold change vs veh, SKA2 / RFU, AFF3 / Fold change vs veh, AFF3 / RFU, LMF1 / Fold change vs veh, LMF1 / RFU, IPO11 / Fold change vs veh, IPO11 / RFU, DFFB / Fold change vs veh, DFFB / RFU, FOXP1 / Fold change vs veh, FOXP1 / RFU, CARD8 / Fold change vs veh, CARD8 / RFU, STRN3 / Fold change vs veh, STRN3 / RFU, ADK / Fold change vs veh, ADK / RFU, RASSF2 / Fold change vs veh, RASSF2 / RFU, WIPF1 / Fold change vs veh, WIPF1 / RFU, LARP1B / Fold change vs veh, LARP1B / RFU, RASA1 / Fold change vs veh, RASA1 / RFU, RB1 / Fold change vs veh, RB1 / RFU, PPFIA1 / Fold change vs veh, PPFIA1 / RFU, MAT2A / Fold change vs veh, MAT2A / RFU, CCT5 / Fold change vs veh, CCT5 / RFU, WDR92 / Fold change vs veh, WDR92 / RFU, CUX1 / Fold change vs veh, CUX1 / RFU, TTC7A / Fold change vs veh, TTC7A / RFU, TMEM135 / Fold change vs veh, TMEM135 / RFU, DEPTOR / Fold change vs veh, DEPTOR / RFU, CPM / Fold change vs veh, CPM / RFU, DNAJB6 / Fold change vs veh, DNAJB6 / RFU, CACNA2D3 / Fold change vs veh, CACNA2D3 / RFU, DTX4 / Fold change vs veh, DTX4 / RFU, TFCP2 / Fold change vs veh, TFCP2 / RFU, GMCL1 /// GMCL1P1 / Fold change vs veh, GMCL1 /// GMCL1P1 / RFU, AEBP2 / Fold change vs veh, AEBP2 / RFU, SNHG1 /// SNORD22 /// SNORD25 /// SNORD26 /// SNORD27 /// SNORD28 /// SNORD29 /// SNORD31 / Fold change vs veh, SNHG1 /// SNORD22 /// SNORD25 /// SNORD26 /// SNORD27 /// SNORD28 /// SNORD29 /// SNORD31 / Fold change (Aza/veh), C12orf56 (ProbeSet 11735607_a_at) / Fold change (ACY-1035/veh), C12orf56 (ProbeSet 11735607_a_at) / Fold change (Aza/veh), FGFR1OP (ProbeSet 11751329_s_at) / Fold change (ACY-1035/veh), FGFR1OP (ProbeSet 11751329_s_at) / Fold change (Aza/veh), VPS36 (ProbeSet 11739960_a_at) / Fold change (ACY-1035/veh), VPS36 (ProbeSet 11739960_a_at) / RFU SYPL1 (11715823_x_at) / Fold change /veh SYPL1 (11715823_x_at) / RFU IGFBP7 (11715501_s_at) / Fold change /veh IGFBP7 (11715501_s_at) / RFU REEP3 (11722064_at) / Fold change /veh REEP3 (11722064_at) / RFU IGLL1 (11728026_x_at) / Fold change /veh IGLL1 (11728026_x_at): dose or concentration left out as unconfirmed.

The structures appear in SMILES notation.

For the compound `Nc1ncn([C@@H]2O[C@H](CO)[C@@H](O)[C@H]2O)c(=O)n1` [azacitidine], the “Fold change vs veh, ZRANB3” value is 0.82.

Values taken from paper PMC5218480 (PLoS ONE, 2017).
